{"source": "patent US7998965B2", "about": "“Glutamate aggrecanase inhibitors” (Wyeth LLC, priority 2005, dated 2011)"}
{"molecular_target": "T1, purified recombinant human Aggrecanase-1 (rAgg1) (Homo sapiens, UniProt O75173)", "T1 sequence (O75173 213-837)": "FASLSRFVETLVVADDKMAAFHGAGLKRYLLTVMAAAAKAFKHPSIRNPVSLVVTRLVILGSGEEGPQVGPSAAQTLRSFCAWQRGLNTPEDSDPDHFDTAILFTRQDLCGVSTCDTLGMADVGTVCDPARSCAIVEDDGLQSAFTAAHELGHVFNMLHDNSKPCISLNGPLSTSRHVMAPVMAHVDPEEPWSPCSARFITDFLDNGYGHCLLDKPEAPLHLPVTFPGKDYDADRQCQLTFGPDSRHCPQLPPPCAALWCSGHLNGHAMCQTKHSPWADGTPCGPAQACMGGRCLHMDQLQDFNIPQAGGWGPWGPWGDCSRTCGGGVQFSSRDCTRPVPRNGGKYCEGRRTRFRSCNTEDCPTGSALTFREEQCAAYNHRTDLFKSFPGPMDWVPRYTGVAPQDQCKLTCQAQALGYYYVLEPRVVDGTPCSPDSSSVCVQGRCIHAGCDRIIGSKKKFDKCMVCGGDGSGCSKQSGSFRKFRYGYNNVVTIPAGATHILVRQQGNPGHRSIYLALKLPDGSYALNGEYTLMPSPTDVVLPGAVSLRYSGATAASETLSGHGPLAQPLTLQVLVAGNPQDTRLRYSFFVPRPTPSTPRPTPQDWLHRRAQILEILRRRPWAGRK", "assay": "In vitro fluorescence screen for Aggrecanase-1 inhibitors", "type": "biochemical", "conditions": "Table 1"}
{"smiles": "O=C(O)CC[C@H](NC(=O)c1cccc(-c2ccccc2)c1)C(=O)NCc1ccccc1", "note": "[Example 17WW, N^1-benzyl-N^2-(1,1′-biphenyl-3-ylcarbonyl)-L-α-glutamine]", "Agg1 IC50 (nM)": "no inh"}
{"smiles": "O=C(O)CC[C@H](NC(=O)c1cccc(-c2cccs2)c1)C(=O)NCc1ccccc1", "note": "[Example 17XX, N^1-benzyl-N^2-(3-thien-2-ylbenzoyl)-L-α-glutamine]", "Agg1 IC50 (nM)": "no inh"}
{"smiles": "O=C(O)CC[C@H](NC(=O)c1ccc(-c2ccco2)o1)C(=O)NCc1ccccc1", "note": "[Example 21C, N^1-benzyl-N^2-(2,2′-bifuran-5-ylcarbonyl)-L-α-glutamine]", "Agg1 IC50 (nM)": "no inh"}
{"smiles": "O=C(O)CC[C@H](NC(=O)c1ccc(-c2cccs2)o1)C(=O)NCc1ccccc1", "note": "[Example 21D, N^1-benzyl-N^2-(5-thien-2-yl-2-furoyl)-L-α-glutamine]", "Agg1 IC50 (nM)": "no inh"}
{"molecular_target": "T1, purified recombinant human Aggrecanase-1 (rAgg1)", "assay": "In vitro fluorescence screen for Aggrecanase-1 inhibitors", "type": "biochemical", "conditions": "Table 1; read-out: Agg1 IC50", "units": {"IC50": "µM"}}
{"smiles": "COc1ccc(-c2ccccc2)cc1NC(=O)[C@H](CCC(=O)O)NC(=O)c1ccc(-c2ccccc2)cc1", "note": "[Example 17BBB, N^2-(1,1′-biphenyl-4-ylcarbonyl)-N^1-(4-methoxy-1,1′-biphenyl-3-yl)-L-α-glutamine]", "IC50": 0.9}
{"smiles": "O=C(O)CC[C@H](NC(=O)c1ccc(-c2ccncc2)cc1)C(=O)NCc1ccccc1", "note": "[Example 17VV, N^1-benzyl-N^2-(4-pyridin-4-ylbenzoyl)-L-α-glutamine]", "IC50": 7.9}
{"smiles": "O=C(O)CC[C@H](NC(=O)c1ccc(-c2ccccc2)cc1Cl)C(=O)NCc1ccccc1", "note": "[Example 17YY, N^1-benzyl-N^2-[(3-chloro-1,1′-biphenyl-4-yl)carbonyl]-L-α-glutamine]", "IC50": 2}
{"smiles": "O=C(O)CC[C@H](NC(=O)c1ccc(-c2ccccc2)cc1F)C(=O)NCc1ccccc1", "note": "[Example 17ZZ, N^1-benzyl-N^2-[(3-fluoro-1,1′-biphenyl-4-yl)carbonyl]-L-α-glutamine]", "IC50": 0.2}
{"smiles": "O=C(O)CC[C@H](NC(=O)c1ccc(-c2ccccc2)o1)C(=O)NCc1ccccc1", "note": "[Example 20, N^1-benzyl-N^2-(5-phenyl-2-furoyl)-L-α-glutamine]", "IC50": "~22"}
{"smiles": "CCOc1cccc(-c2ccc(C(=O)N[C@@H](CCC(=O)O)C(=O)NCc3ccccc3)o2)c1", "note": "[Example 21A, N^1-benzyl-N^2-[5-(3-ethoxyphenyl)-2-furoyl]-L-α-glutamine]", "IC50": "2.5 to 7.5"}
{"smiles": "Cc1cc(C)cc(-c2ccc(C(=O)N[C@@H](CCC(=O)O)C(=O)NCc3ccccc3)o2)c1", "note": "[Example 21B, N^1-benzyl-N^2-[5-(3,5-dimethylphenyl)-2-furoyl]-L-α-glutamine]", "IC50": "~6.7"}
{"smiles": "O=C(O)CC[C@H](NC(=O)c1ccc(-c2ccccc2)nc1)C(=O)NCc1ccccc1", "note": "[Example 22A, N^1-benzyl-N^2-[(6-phenylpyridin-3-yl)carbonyl]-L-α-glutamine]", "IC50": 1}
{"smiles": "COc1cccc(CNC(=O)[C@H](CCC(=O)O)NC(=O)c2ccc(-c3ccccc3)nc2)c1", "note": "[Example 22B, N^1-(3-methoxybenzyl)-N^2-[(6-phenylpyridin-3-yl)carbonyl]-L-α-glutamine]", "IC50": 0.2}
{"smiles": "COc1cccc(CNC(=O)[C@H](CCC(=O)O)NC(=O)c2ccc(-c3ccccc3C)c(C)c2)c1", "note": "[Example 22C, N^2-[(2,2′-dimethyl-1,1′-biphenyl-4-yl)carbonyl]-N^1-(3-methoxybenzyl)-L-α-glutamine]", "IC50": "> 50"}
{"smiles": "CC(=O)Nc1ccc(-c2ccc(C(=O)N[C@@H](CCC(=O)O)C(=O)NCc3ccccc3)cc2)cc1", "note": "[Example 23, N^2-{[4′-(acetylamino)-1,1′-biphenyl-4-yl]carbonyl}-N^1-benzyl-L-α-glutamine]", "IC50": "> 6"}
{"smiles": "O=C(O)CC[C@H](NC(=O)c1ccc(-c2ccc(NC(=O)c3ccco3)cc2)cc1)C(=O)NCc1ccccc1", "note": "[Example 24A, N^1-benzyl-N^2-{[4′-(2-furoylamino)-1,1′-biphenyl-4-yl]carbonyl}-L-α-glutamine]", "IC50": 1.1}
{"smiles": "O=C(O)CC[C@H](NC(=O)c1ccc(-c2ccc(NC(=O)c3ccc(F)cc3)cc2)cc1)C(=O)NCc1ccccc1", "note": "[Example 24B, N^1-benzyl-N^2-({4′-[(4-fluorobenzoyl)amino]1,1′-biphenyl-4-yl}carbonyl)-L-α-glutamine]", "IC50": "~2.2"}
{"smiles": "O=C(O)CC[C@H](NC(=O)c1ccc(-c2ccc(NC(=O)c3ccccc3)cc2)cc1)C(=O)NCc1ccccc1", "note": "[Example 24C, N^2-{[4′-(benzoylamino)-1,1′-biphenyl-4-yl]carbonyl}-N^1-benzyl-L-α-glutamine]", "IC50": "~0.3"}
{"smiles": "O=C(O)CC[C@H](NC(=O)c1ccc(-c2ccc(NC(=O)Cc3ccccc3)cc2)cc1)C(=O)O", "note": "[Example 26, N-({4′-[(Phenylacetyl)amino]1,1′-biphenyl-4-yl}carbonyl)-L-α-glutamic acid]", "IC50": 5}
{"smiles": "Cc1c(C(=O)Nc2ccc(-c3ccc(C(=O)N[C@@H](CCC(=O)O)C(=O)O)cc3)cc2)oc2ccccc12", "note": "[Example 27, N-[(4′-{[(3-Methyl-1-benzofuran-2-yl)carbonyl]-amino}-1,1′-biphenyl-4-yl)carbonyl]-L-α-glutamic acid]", "IC50": 0.4}
{"smiles": "O=C(O)CC[C@H](NC(=O)c1ccc(-c2ccc(NC(=O)c3ccco3)cc2)cc1)C(=O)O", "note": "[Example 28, N-{[4′-(2-furoylamino)-1,1′-biphenyl-4-yl]carbonyl}-L-α-glutamic acid]", "IC50": 0.4}
{"smiles": "CC(=O)Nc1ccc(-c2ccc(C(=O)N[C@@H](CCC(=O)O)C(=O)O)cc2)cc1", "note": "[Example 29, N-{[4′-(acetylamino)-1,1′-biphenyl-4-yl]carbonyl}-L-α-glutamic acid]", "IC50": 3}
{"smiles": "O=C(O)CC[C@H](NC(=O)c1ccc(-c2ccc(NC(=O)c3ccccc3)cc2)cc1)C(=O)O", "note": "[Example 30, N-{[4′-(benzoylamino)-1,1′-biphenyl-4-yl]carbonyl}-L-α-glutamic acid]", "IC50": 0.5}
{"smiles": "O=C(O)CC[C@H](NC(=O)c1ccc(-c2ccc(NC(=O)c3cc4ccccc4o3)cc2)cc1)C(=O)O", "note": "[Example 31, N-({4′-[(1-benzofuran-2-ylcarbonyl)amino]-1,1′-biphenyl-4-yl}carbonyl)-L-α-glutamic acid]", "IC50": 1}
{"smiles": "Cc1ccc(CNC(=O)[C@H](CCC(=O)NO)NC(=O)c2ccc(-c3ccccc3)cc2)cc1C", "note": "[Example 33B, N^2-(1,1′-biphenyl-4-ylcarbonyl)-N^1-(3,4-dimethylbenzyl)-N^5-hydroxy-L-α-glutamamide]", "IC50": "< 0.03"}
{"molecular_target": "T1, purified recombinant human Aggrecanase-1 (rAgg1)", "assay": "In vitro fluorescence screen for Aggrecanase-1 inhibitors", "type": "biochemical", "conditions": "Table 2; read-out: Agg1 IC50", "units": {"IC50": "µM"}}
{"smiles": "Cc1cccc(CNC(=O)[C@H](CCC(=O)O)NC(=O)c2ccc(Br)cc2)c1", "note": "[Example 18G, N^2-(4-bromobenzoyl)-N-(3-methylbenzyl)-L-α-glutamine]", "IC50": "~8.3"}
{"molecular_target": "T1, purified recombinant human Aggrecanase-1 (rAgg1)", "assay": "In vitro fluorescence screen for Aggrecanase-1 inhibitors", "type": "biochemical", "conditions": "Table 3; read-out: Agg1 IC50", "units": {"IC50": "µM"}}
{"smiles": "CC(C)(Cc1ccccc1)NC(=O)[C@H](CCC(=O)O)NC(=O)c1cccc(-c2cccs2)c1", "note": "[N-(1,1-dimethyl-2-phenylethyl)-N^2-[3-(2-thienyl)benzoyl]-L-α-glutamine]", "IC50": "> 8.3"}
